{"source": "paper PMC12016430", "about": "(The Journal of Headache and Pain, 2025)", "experiment_in_all_cases": "competitive gel-based ABPP", "format_in_all_cases": "cell-based", "key": {"[1]": {"biological_target": "T1, MAGL (Rattus norvegicus, UniProt Q8R431)", "T1 sequence (Q8R431 1-303)": "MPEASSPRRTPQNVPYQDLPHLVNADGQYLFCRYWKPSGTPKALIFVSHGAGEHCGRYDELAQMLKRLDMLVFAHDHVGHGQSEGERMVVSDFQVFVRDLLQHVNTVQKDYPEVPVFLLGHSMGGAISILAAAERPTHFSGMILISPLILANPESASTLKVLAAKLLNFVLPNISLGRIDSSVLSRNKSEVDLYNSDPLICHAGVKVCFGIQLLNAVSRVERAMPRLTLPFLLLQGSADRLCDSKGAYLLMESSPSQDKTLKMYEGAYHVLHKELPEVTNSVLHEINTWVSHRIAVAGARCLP"}, "[2]": {"biological_target": "T2, ABHD6 (Rattus norvegicus, UniProt Q5XI64)", "T2 sequence (Q5XI64 1-337)": "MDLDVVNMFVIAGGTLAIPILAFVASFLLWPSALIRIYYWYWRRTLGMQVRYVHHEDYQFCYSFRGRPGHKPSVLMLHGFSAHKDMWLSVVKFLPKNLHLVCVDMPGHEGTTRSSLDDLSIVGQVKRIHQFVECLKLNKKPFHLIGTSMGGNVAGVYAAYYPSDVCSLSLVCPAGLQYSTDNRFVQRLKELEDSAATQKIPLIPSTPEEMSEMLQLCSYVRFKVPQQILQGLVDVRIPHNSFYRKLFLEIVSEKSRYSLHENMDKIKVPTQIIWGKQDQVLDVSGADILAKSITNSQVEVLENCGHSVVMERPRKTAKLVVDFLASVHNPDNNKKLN"}, "[3]": {"biological_target": "T3, FAAH (Rattus norvegicus, UniProt P97612)", "T3 sequence (P97612 1-579)": "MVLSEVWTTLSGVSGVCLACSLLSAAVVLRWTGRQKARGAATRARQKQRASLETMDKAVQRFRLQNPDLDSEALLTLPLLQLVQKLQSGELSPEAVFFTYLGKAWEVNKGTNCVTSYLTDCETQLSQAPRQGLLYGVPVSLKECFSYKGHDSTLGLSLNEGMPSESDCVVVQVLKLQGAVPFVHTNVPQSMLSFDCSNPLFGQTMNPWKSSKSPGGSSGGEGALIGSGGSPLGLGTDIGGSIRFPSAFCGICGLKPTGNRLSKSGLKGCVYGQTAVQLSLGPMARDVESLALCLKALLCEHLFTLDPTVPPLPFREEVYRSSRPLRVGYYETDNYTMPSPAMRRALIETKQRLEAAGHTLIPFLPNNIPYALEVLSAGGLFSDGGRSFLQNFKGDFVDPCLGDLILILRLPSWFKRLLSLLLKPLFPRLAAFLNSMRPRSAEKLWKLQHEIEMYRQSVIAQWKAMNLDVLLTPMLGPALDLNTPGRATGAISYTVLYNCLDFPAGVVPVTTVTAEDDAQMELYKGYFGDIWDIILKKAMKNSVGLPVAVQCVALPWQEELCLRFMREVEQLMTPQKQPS"}}}
{"smiles": "O=C(N1CCN(C(c2ccccc2)c2ccccc2)CC1)n1cncn1", "note": "[AKU-005]", "values": [{"measurement": "% inhibition at 100 nM", "setting": "[1]", "value": 79}, {"measurement": "% inhibition at 100 nM", "setting": "[2]", "value": 30}, {"measurement": "% inhibition at 100 nM", "setting": "[3]", "value": 79}]}
